Molecules are shown by their SMILES.

One data set deals with male Sprague-Dawley rats. Briefly: elevated maze test in the rat (anxiolytic effect). In kind it is in vivo. The conditions noted are these: per os, 60-min pretreatment, 5-min measurement, MED regarding time spent in the open arms and number of entries into the open arms. Here is the method:
Pharmacological activity of the compounds of the general Formula (I) has been evaluated in elevated maze test in the rat.
The tests were carried out according to the method of S. Fellow and coworkers (J. Neurosci. Methods. 1985, 14, 149-167). During the test, a wooden-floor cross elevated by 50 cm from the ground was used. The length and the width of the arms of the cross were 100 and 15 cm, respectively. Two opposite arms of the cross are fitted at the ends and both sides with black plexiglass wall of 40 cm height (closed arms). The central section of the cross measuring 15 by 15 cm is open. The other two opposite arms of the cross are not provided with walls (open arms).
The tests were carried out in male Sprague-Dawley rats weighing 200 to 220 g. After the 60-min pretreatment time (per os treatment), animals were placed in the center of the maze. During the 5-min measurement time, four variables were recorded: the time spent in the open arms; the time spent in the closed arms; the number of entries into the open arms; the number of entries into the closed arms.
Animals normally avoid the open and light parts of the maze, thereby spending little time therein only. The anxiolytic effect of the compounds of the general Formula (I) is indicated by the increase in the time spent (in seconds) in the open arms and/or by the increase in the number of the entries into the open compartments of the maze. The minimum effective dose (MED) was determined for each tested compounds regarding the time spent in the open arms and the number of entries into the open arms. During the test, the known anxiolytic compound I-methyl-5-phenyl-7-chloro-1,3-dihydro-2H-1,4-benzodiazepin-2-one (INN: diazepam) of the Formula (IV)
was used. Treatment of the animals was carried out orally with the doses 0.1, 0.3, 1.0, 3.0 for diazepam and 0.01, 0.1, 1.0 mg/kg for the compounds of the general Formula (I).
As to `CN1C(=O)CN=C(c2ccccc2)c2cc(Cl)ccc21` [Diazepam, I-methyl-5-phenyl-7-chloro-1,3-dihydro-2H-1,4-benzodiazepin-2-one, reference compound], the “MED (minimum effective dose), anxiolytic effect in elevated maze test” value (shortened to “MED (minimum effective dose)”) is 1.00 mg/kg p.o.

In the case of `CC1NNS(=O)(=O)c2cc(Cl)ccc21` (stereo not drawn) [Example 1, 7-chloro-4-methyl-3,4-dihydrobenzo[1,2,3]thiadiazine-1,1-dioxide], the “MED (minimum effective dose)” value was found to be 0.3 mg/kg p.o.

Turning to `CC1NNS(=O)(=O)c2c1ccc(Cl)c2Cl` (stereo not drawn) [Example 3, 7,8-Dichloro-4-methyl-3,4-dihydrobenzo[1,2,3]thiadiazine-1,1-dioxide], the “MED (minimum effective dose)” value was 0.01 mg/kg p.o.

Tested on in a further data set: not given
Assay: not given
Settings: not given
For `CC1NNS(=O)(=O)c2cc(Cl)ccc21` (stereo not drawn) [Example 1, 7-chloro-4-methyl-3,4-dihydrobenzo[1,2,3]thiadiazine-1,1-dioxide], the melting point (as a rule, the temperature, or range, at which the solid turns liquid) was 155 to 156 °C.

In turn, `CCC1NNS(=O)(=O)c2cc(Cl)ccc21` (stereo not drawn) [Example 2, 4-Ethyl-7-chloro-3,4-dihydrobenzo[1,2,3]thiadiazine-1,1-dioxide] displayed a melting point of 128 to 130 °C.

Molecule `CC1NNS(=O)(=O)c2c1ccc(Cl)c2Cl` (stereo not drawn) [Example 3, 7,8-Dichloro-4-methyl-3,4-dihydrobenzo[1,2,3]thiadiazine-1,1-dioxide] returned a melting point of 261 to 263 °C.

Molecule `CCC1NNS(=O)(=O)c2c1ccc(Cl)c2Cl` (stereo not drawn) [Example 4, 7,8-Dichloro-4-ethyl-3,4-dihydrobenzo[1,2,3]thiadiazine-1,1-dioxide] displayed a melting point of 222 to 224 °C.

`Cc1cc2c(c(Cl)c1Cl)S(=O)(=O)NNC2C` (stereo not drawn) [Example 6, 7,8-Dichloro-4,6-dimethyl-3,4-dihydrobenzo[1,2,3]thiadiazine-1,1-dioxide]: the melting point was 253 to 254 °C.

`CC1NNS(=O)(=O)c2c(Cl)cccc21` (stereo not drawn) [Example 7, 8-chloro-4-methyl-3,4-dihydrobenzo[1,2,3]thiadiazine-1,1-dioxide] displayed a melting point of 202 to 203 °C.

On to `CC1NNS(=O)(=O)c2ccccc21` (stereo not drawn) [Example 8, 4-Methyl-3,4-dihydrobenzo[1,2,3]thiadiazine-1,1-dioxide], for which the melting point was in the range of 150 to 152 °C.

Turning to `COc1ccc2c(c1Cl)S(=O)(=O)NNC2C` (stereo not drawn) [Example 9, 8-chloro-4-methyl-7-methoxy-3,4-dihydrobenzo[1,2,3]thiadiazine-1,1-dioxide], the melting point is 231 to 233 °C.

As for `COc1ccc2c(c1OC)S(=O)(=O)NNC2C` (stereo not drawn) [Example 10, 7,8-Dimethoxy-4-methyl-3,4-dihydrobenzo[1,2,3]thiadiazine-1,1-dioxide], the melting point was in the range of 211 to 213 °C.

Consider `COc1cccc2c1S(=O)(=O)NNC2C` (stereo not drawn) [Example 11, 4-Methyl-8-methoxy-3,4-dihydrobenzo[1,2,3]thiadiazine-1,1-dioxide], for which the melting point lay in the range of 231 to 233 °C.

In turn, `COc1ccc2c(c1)CNNS2(=O)=O` [Example 13, 6-Methoxy-3,4-dihydrobenzo[1,2,3]thiadiazine-1,1-dioxide] came in with a melting point of 181 to 182 °C.

For `O=S1(=O)NNCc2ccccc21` [Example 14, 3,4-Dihydrobenzo[1,2,3]thiadiazine-1,1-dioxide], the melting point was in the range of 134 to 136 °C.

For the molecule `COc1ccc2c(c1Cl)S(=O)(=O)NNC2` [Example 15, 8-chloro-7-methoxy-3,4-dihydrobenzo[1,2,3]thiadiazine-1,1-dioxide], the melting point is 209 to 210 °C.

On to `CCC1NN(C)S(=O)(=O)c2c1ccc(Cl)c2Cl` (stereo not drawn) [Example 17, 7,8-Dichloro-4-ethyl-2-methyl-3,4-dihydrobenzo[1,2,3]thiadiazine-1,1-dioxide], for which the melting point was in the range of 139 to 141 °C.

`Cc1cc(Cl)c(Cl)c2c1C(C)NN(C)S2(=O)=O` (stereo not drawn) [Example 18, 7,8-Dichloro-2,4,5-trimethyl-3,4-dihydrobenzo[1,2,3]thiadiazine-1,1-dioxide]: the melting point lay within 101 to 102 °C.

`COc1ccc2c(c1Cl)S(=O)(=O)N(C)NC2C` (stereo not drawn) [Example 19, 2,4-Dimethyl-8-chloro-7-methoxy-3,4-dihydrobenzo[1,2,3]thiadiazine-1,1-dioxide] yielded a melting point of 141 to 143 °C.

`CCN1NC(C)c2ccc(Cl)c(Cl)c2S1(=O)=O` (stereo not drawn) [Example 21, 7,8-Dichloro-2-ethyl-4-methyl-3,4-dihydrobenzo[1,2,3]thiadiazine-1,1-dioxide]: the melting point is 135 to 136 °C.

Consider `CCC1NN(CC)S(=O)(=O)c2c1ccc(Cl)c2Cl` (stereo not drawn) [Example 22, 2,4-Diethyl-7,8-dichloro-3,4-dihydrobenzo[1,2,3]thiadiazine-1,1-dioxide], for which the melting point lay within 118 to 120 °C.

Take `CC1NN(C)S(=O)(=O)c2c(Cl)cccc21` (stereo not drawn) [Example 23, 2,4-Dimethyl-8-chloro-3,4-dihydrobenzo[1,2,3]thiadiazine-1,1-dioxide]: the melting point lay in the range of 128 to 130 °C.

Molecule `CCN1NC(C)c2cccc(Cl)c2S1(=O)=O` (stereo not drawn) [Example 24, 2-Ethyl-8-chloro-4-methyl-3,4-dihydrobenzo[1,2,3]thiadiazine-1,1-dioxide] came in with a melting point of 79 to 80 °C.

The molecule `Cc1cc2c(c(Cl)c1Cl)S(=O)(=O)N(C)NC2C` (stereo not drawn) [Example 25, 7,8-Dichloro-2,4,6-trimethyl-3,4-dihydrobenzo[1,2,3]thiadiazine-1,1-dioxide] gave a melting point of 141 to 142 °C.

As to `CC1c2ccc(Cl)c(Cl)c2S(=O)(=O)NN1C` (stereo not drawn) [Example 26, 7,8-Dichloro-3,4-dimethyl-3,4-dihydrobenzo[1,2,3]thiadiazine-1,1-dioxide], the melting point was in the range of 194 to 195 °C.

The molecule `CCN1NS(=O)(=O)c2c(ccc(Cl)c2Cl)C1C` (stereo not drawn) [Example 27, 7,8-Dichloro-3-ethyl-4-methyl-3,4-dihydrobenzo[1,2,3]thiadiazine-1,1-dioxide] had a melting point of 172 to 174 °C.

Turning to `CCCN1NS(=O)(=O)c2c(ccc(Cl)c2Cl)C1C` (stereo not drawn) [Example 28, 7,8-Dichloro-4-methyl-3-propyl-3,4-dihydrobenzo[1,2,3]thiadiazine-1,1-dioxide], the melting point was in the range of 164 to 165 °C.

Regarding `CCC1c2ccc(Cl)cc2S(=O)(=O)NN1CC` (stereo not drawn) [Example 29, 3,4-Diethyl-7-chloro-3,4-dihydrobenzo[1,2,3]thiadiazine-1,1-dioxide], the melting point was 109 to 111 °C.

`CCC1c2ccc(Cl)cc2S(=O)(=O)NN1C(C)C` (stereo not drawn) [Example 30, 4-Ethyl-3-isopropyl-7-chloro-3,4-dihydrobenzo[1,2,3]thia diazine-1,1-dioxide] showed a melting point of 99 to 101 °C.

Molecule `Cc1cc(Cl)c(Cl)c2c1C(C)N(C)NS2(=O)=O` (stereo not drawn) [Example 31, 7,8-Dichloro-3,4,5-trimethyl-3,4-dihydrobenzo[1,2,3]thiadiazine-1,1-dioxide] returned a melting point of 236 to 238 °C.

For `CN1Cc2ccccc2S(=O)(=O)N1` [Example 32, 3-Methyl-3,4-dihydrobenzo[1,2,3]thiadiazine-1,1-dioxide], the melting point is 176 to 178 °C.

On to `CCN1Cc2ccccc2S(=O)(=O)N1` [Example 33, 3-Ethyl-3,4-dihydrobenzo[1,2,3]thiadiazine-1,1-dioxide], for which the melting point was 146 to 147 °C.

In turn, `COc1ccc2c(c1)CN(C)NS2(=O)=O` [Example 34, 3-Methyl-6-methoxy-3,4-dihydrobenzo[1,2,3]thiadiazine-1,1-dioxide] registered a melting point of 186 to 187 °C.

Take `CCN1Cc2cc(OC)ccc2S(=O)(=O)N1` [Example 35, 3-Ethyl-6-methoxy-3,4-dihydrobenzo[1,2,3]thiadiazine-1,1-dioxide]: the melting point was 180 to 181 °C.

For the molecule `CN1Cc2ccc(Cl)c(Cl)c2S(=O)(=O)N1` [Example 36, 7,8-Dichloro-3-methyl-3,4-dihydrobenzo[1,2,3]thiadiazine-1,1-dioxide], the melting point lay in the range of 189 to 190 °C.

Molecule `CN1Cc2ccc(Cl)cc2S(=O)(=O)N1` [Example 37, 7-chloro-3-methyl-3,4-dihydrobenzo[1,2,3]thiadiazine-1,1-dioxide] gave a melting point of 188 to 189 °C.

Consider `Cc1cc(Cl)c(Cl)c2c1C(C)N(C(C)C)NS2(=O)=O` (stereo not drawn) [Example 38, 7,8-Dichloro-4,5-dimethyl-3-isopropyl-3,4-dihydrobenzo[1,2,3]thiadiazine-1,1-dioxide], for which the melting point was in the range of 167 to 168 °C.

With `COc1ccc2c(c1)CN(C)N(C)S2(=O)=O` [Example 39, 2,3-Dimethyl-6-methoxy-3,4-dihydrobenzo[1,2,3]thiadiazine-1,1-dioxide], the melting point fell in the range of 142 to 143 °C.

In turn, `CCN1Cc2cc(OC)ccc2S(=O)(=O)N1C` [Example 40, 3-Ethyl-2-methyl-6-methoxy-3,4-dihydrobenzo[1,2,3]thiadiazine-1,1-dioxide] gave a melting point of 123 to 125 °C.

Regarding `CN1Cc2ccccc2S(=O)(=O)N1C` [Example 41, 2,3-Dimethyl-3,4-dihydrobenzo[1,2,3]thiadiazine-1,1-dioxide], the melting point lay in the range of 143 to 145 °C.

Molecule `CCN1Cc2ccccc2S(=O)(=O)N1C` [Example 42, 3-Ethyl-2-methyl-3,4-dihydrobenzo[1,2,3]thiadiazine-1,1-dioxide] registered a melting point of 140 to 142 °C.

The molecule `CC1c2ccc(Cl)c(Cl)c2S(=O)(=O)N(C)N1C` (stereo not drawn) [Example 43, 7,8-Dichloro-2,3,4-trimethyl-3,4-dihydrobenzo[1,2,3]thiadiazine-1,1-dioxide] had a melting point of 135 to 136 °C.

(Values after patent US20100190778A1, “3,4-DIHYDROBENZO[1,2,3]THIADIAZINE-1,1-DIOXIDE DERIVATIVES, PROCESS FOR PREPARATION THEREOF, MEDICAMENTS CONTAINING SAID DERIVATIVES AND THEIR USE” (EGIS GYOGYSZERGYAR NYILVANOSAN MUKODO RESZVENTARSASAG, priority 2006, published 2010).)
